Experimental findings from patent US9056886B2, “Guanosine-rich modified oligonucleotides and antiproliferative activity thereof” (APTABIO THERAPEUTICS INC., priority 2009, dated 2015) are described below.

The subject of series [1] is PC-3 cell line (prostate cancer cell). Briefly: Cell apoptosis (XTT method) in PC-3 cells. The class given is cell-based. The note with it: PC3 (Prostate Cancer Cells), cultured six days, XTT. As for the experimental part: (§1) Each oligonucleotide was diluted in 10 mM Tris-HCl (pH 7.4) to a final concentration of 100 μM. The diluted solution was placed at 94° C. for 5 minutes and then quickly placed them on ice and left therein for 5 minutes. The resultant was added with 2M KCl to a final concentration of 50 mM, left at 60° C. for 3 hours and then slowly cooled down to room temperature.
(§2) One day before the experiment, 190 μL of culture, wherein PC-3 cell line(prostate cancer cell) was suspended at a concentration of 10^3-10^4/mL, was inoculated respectively into each well of a 96 well plate. The next day, 10 μL of the oligonucleotide solution prepared in Example 1 was added and cultured for six days. Six days after the inoculation, cell apoptosis rate measured by means of XTT method [JBC 1999, 26369].
For orientation: Tetrazolium dyes change colour on reduction, which living cells bring about.

The subject of series [2] is MCF7-DX (Breast Cancer Cells), a drug-resistance cell line. Put plainly: Cell apoptosis (XTT method) in MCF7-DX cells. In kind it is cell-based. As for the experimental part:
[Worded in the source for another cell line; this cell line is reported under the same test.] as §1, §2
As a result, it was confirmed that the cell apoptosis rate of APT-2001, APT-2002 and APT-2003 (the novel modified oligonucleotides of the present invention), was 3-10 times higher than those of APT-4001 (positive control) and APT-4002 (negative control) as measured in terms of IC50 or IC90 (FIG. 2). […] In addition, the cell apoptotic activity of the oligonucleotides, prepared according to the present invention over the K562 CML (chronic myeloid leukemia), MV-4-11 AML (acute leukemia) cells, were also verified.

[5FU] = 5-fluorouracil base (5-fluoro-2'-deoxyuridine unit); [GEM] = 2',2'-difluoro-2'-deoxycytidine (gemcitabine); [5FC] = 5-fluoro-2'-deoxycytidine; d = 2'-deoxy (DNA)

For “APT-2013: NNNGGNGGNGGNGGTTGTGGNGGNGGNGG (SEQ. ID. NO. 10); N=5-F-deoxyuridine, G=2-deoxy-guanosine, H=thymidine (DNA UUUGGUGGUGGUGGTTGTGGUGGUGGUGG; DNA, [5FU] at 1, 2, 3, 6, 9, 12, 21, 24, 27, backbone not given here)”, the IC50 – broadly, the point on the concentration scale where inhibition reaches its midpoint – came out at 90 nM in series [1] and 660 nM in series [2]. On to “APT-2020: GGTGGTGGNNNNGGTGGTGG (SEQ. ID. NO. 18); N=5-F-deoxyuridine, G=2-deoxy-guanosine, H=thymidine (DNA GGTGGTGGUUUUGGTGGTGG; DNA, [5FU] at 9, 10, 11, 12, backbone not given here)”, for which the IC50 worked out at 160 nM in series [1] and 890 nM in series [2]. With “APT-2022: GGTGGNNNNGGTGG (SEQ. ID. NO. 20); N=5-F-deoxyuridine, G=2-deoxy-guanosine, H=thymidine (DNA GGTGGUUUUGGTGG; DNA, [5FU] at 6, 7, 8, 9, backbone not given here)”, the IC50 in series [1] was 110 nM; in series [2], 790 nM. Consider “APT-2023: GGNGGTGGNGG (SEQ. ID. NO. 21); N=5-F-deoxyuridine, G=2-deoxy-guanosine, H=thymidine (DNA GGUGGTGGUGG; DNA, [5FU] at 3, 9, backbone not given here)”, for which the figures for the half-maximal inhibitory concentration (IC50) in series [1] and in series [2] were 260 nM and 1860 nM, respectively. As for “APT-2031: GGTGGTGGTNNTGGTGGTGG (SEQ. ID. NO. 23); N=5-F-deoxyuridine, G=2-deoxy-guanosine, H=thymidine (DNA GGTGGTGGTUUTGGTGGTGG; aptamer; DNA, [5FU] at 10, 11, backbone not given here)”, the results for the half-inhibitory concentration (IC50) in series [1] and in series [2] were > 10000 nM and 1500 nM, respectively. In the same order, the values of “APT-2032: GGTGGTGGTTNTGGTGGTGG (SEQ. ID. NO. 24); N=5-F-deoxyuridine, G=2-deoxy-guanosine, H=thymidine (DNA GGTGGTGGTTUTGGTGGTGG; aptamer; DNA, [5FU] at 11, backbone not given here)” are > 10000 nM and 3600 nM.

For the substance “APT-2033: GGTGGTGGTTTNGGTGGTGG (SEQ. ID. NO. 25); N=5-F-deoxyuridine, G=2-deoxy-guanosine, H=thymidine (DNA GGTGGTGGTTTUGGTGGTGG; aptamer; DNA, [5FU] at 12, backbone not given here)”, the half-inhibitory concentration (IC50) is > 10000 nM in series [1] and 3300 nM in series [2]. Consider “APT-2034: GGTGGTGGTNNNGGTGGTGG (SEQ. ID. NO. 26); N=5-F-deoxyuridine, G=2-deoxy-guanosine, H=thymidine (DNA GGTGGTGGTUUUGGTGGTGG; DNA, [5FU] at 10, 11, 12, backbone not given here)”, for which the half-maximal inhibitory concentration (IC50) was > 10000 nM in series [1] and 1200 nM in series [2]. With “APT-2035: GGTGGTGGTTNTGGTGGTGG (SEQ. ID. NO. 24); N=2′,2′-difluoro deoxycytidine, G=2-deoxy-guanosine, H=thymidine (2',2'-difluoro deoxycytidine modified nucleosides, chemistry not fully specified)”, the IC50 in series [1] was 35 nM; in series [2], 7 nM. For the substance “APT-2040: GGTGGTGGTGGTTNTGGTGGTGGTGG (SEQ. ID. NO. 30); N=5-F-deoxyuridine, G=2-deoxy-guanosine, H=thymidine (DNA GGTGGTGGTGGTTUTGGTGGTGGTGG; DNA, [5FU] at 14, backbone not given here)”, the IC50 in series [2] was > 1000 nM. Same read-out and setting: the result for “APT-2042: GGNGGNGGNGGTTGTGGNGGNGGNGG (SEQ. ID. NO. 32); N=5-F-deoxyuridine, G=2-deoxy-guanosine, H=thymidine (5-F-deoxyuridine modified nucleosides)” reads 500 nM; that for “APT-2043: GGNGGNGGTGGTTGTGGTGGNGGNGG (SEQ. ID. NO. 33); N=5-F-deoxyuridine, G=2-deoxy-guanosine, H=thymidine (5-F-deoxyuridine modified nucleosides)”, 600 nM; that for “APT-2044: GGNGGTGGTGGTTGTGGTGGTGGNGG (SEQ. ID. NO. 34); N=5-F-deoxycytidine, G=2-deoxy-guanosine, H=thymidine (DNA GGCGGTGGTGGTTGTGGTGGTGGCGG; DNA, [5FC] at 3, 24, backbone not given here; G-quadruplex forming oligonucleotide)”, > 1000 nM. “APT-2054: GGTGGTGGTGGTTNTGGTGGTGGTGG (SEQ. ID. NO. 30); N=2′,2′-difluoro deoxycytidine, G=2-deoxy-guanosine, H=thymidine (DNA GGTGGTGGTGGTTCTGGTGGTGGTGG; sugars from the 5' end d13 [GEM]1 d12, backbone not given here; G-quadruplex forming oligonucleotide)”: the IC50 in series [1] and in series [2] was < 300 nM each time. “APT-2059: GGTGGTGGTNNTGGTGGTGG (SEQ. ID. NO. 23); N=2′,2′-difluoro deoxycytidine, G=2-deoxy-guanosine, H=thymidine (2',2'-difluoro deoxycytidine modified nucleosides, chemistry not fully specified)”: the concentration for half-maximal inhibition (IC50) in series [1] amounted to 15 nM; in series [2] it was 4 nM. “APT-2060: GGTGGTGGNTGTGGTGGTGG (SEQ. ID. NO. 37); N=2′,2′-difluoro deoxycytidine, G=2-deoxy-guanosine, H=thymidine (aptamer; listed as DNA, chemistry not fully specified)”: the figures for the half-inhibitory concentration (IC50) in series [1] and in series [2] were 40 nM and 23 nM, respectively.

In series [2], “APT-2067: GGTGGTGGTGGTNGTGGTGGTGGTGG (SEQ. ID. NO. 43); N=2′,2′-difluoro deoxycytidine, G=2-deoxy-guanosine, H=thymidine (DNA GGTGGTGGTGGTCGTGGTGGTGGTGG; sugars from the 5' end d12 [GEM]1 d13, backbone not given here; G-quadruplex forming oligonucleotide)” came in with a 50% inhibitory concentration (IC50) of 24 nM. This counts as double-digit nanomolar. The substance “APT-2068: GGTGGTGGTGGTTGNGGTGGTGGTGG (SEQ. ID. NO. 31); N=2′,2′-difluoro deoxycytidine, G=2-deoxy-guanosine, H=thymidine (2',2'-difluoro deoxycytidine modified nucleosides, chemistry not fully specified)” returned an IC50 in series [2] of 23 nM.

The substance “APT-2069: GGTGGTGGTGGTNGNGGTGGTGGTGG (SEQ. ID. NO. 44); N=2′,2′-difluoro deoxycytidine, G=2-deoxy-guanosine, H=thymidine (2',2'-difluoro deoxycytidine modified nucleosides, chemistry not fully specified)” came in with an IC50 in series [2] of 10 nM. Still for that read-out and setting: as for “APT-2071: GGTGGNGGTGGTTGTGGTGGNGGTGG (SEQ. ID. NO. 46); N=2′,2′-difluoro deoxycytidine, G=2-deoxy-guanosine, H=thymidine (2',2'-difluoro deoxycytidine modified nucleosides, chemistry not fully specified)”, the figure is 15 nM.

For the substance “APT-2072: GGTGGTGGTTNTGGTGGTGGN (SEQ. ID. NO. 47); N=2′,2′-difluoro deoxycytidine, G=2-deoxy-guanosine, H=thymidine (2',2'-difluoro deoxycytidine modified nucleosides, chemistry not fully specified)”, the IC50 in series [1] amounted to 12 nM.
